In patent publication US3965109A, “Certain aryl amino pyridines” (priority 1971, dated 1976):

Tests used:
[1] = test system: Puccinia recondita (wheat); assay: Fungicidal test against foliar disease A (foliage spray plus soil drench); format: in vivo; conditions: 100 ppm spray and drench; 10 days
[2] = test system: Plasmopara viticola (vine); assay: Fungicidal test against foliar disease C (foliage spray plus soil drench); format: in vivo; conditions: 100 ppm spray and drench; 10 days
Uncinula necator (vine) = assay: Fungicidal test against foliar disease D (foliage spray plus soil drench); format: in vivo; conditions: 100 ppm spray and drench; 10 days
[3] = test system: Piricularia oryzae (rice); format: in vivo; conditions: 100 ppm spray and drench; 7 days
[4] = test system: Venturia inaequalis (apple); assay: Fungicidal test against foliar disease G (foliage spray plus soil drench); format: in vivo; conditions: 100 ppm spray and drench; 21 days
Protocol: This Example illustrates the fungicidal properties of compounds used as active ingredients in the compositions of the invention. The compounds were tested against a wide variety of foliar fungal diseases of plants. In the test, a composition comprising an aqueous solution or suspension of the test compound was sprayed on to the foliage or uninfected plants; the soil in which the plants were growing was also drenched with the composition. The compositions used for spraying and drencing contained 100 parts per million (ppm.) of the test compound except where otherwise stated in the table of results below. After spraying and drenching, the plants were then exposed to infection with the diseases it was desired to control, along with control plants not treated with the compound. After a period of days, depending upon the particular disease, the extent of the disease was visually assessed, as a percentage of the disease established upon the control plants which had not been treated with the compound under test, according to the grading scheme below
In Table 2 below the names of the disease is given in the first column, and in the second column is given the time which elapsed between exposing the plants to infection and assessing the amount of disease.

[5] = test system: Tetranychus telarius (red spider mites, adults); assay: Pest toxicity test; format: in vivo; conditions: 0.1% by weight; French bean; 3 days
[6] = test system: Tetranychus telarius (red spider mites, eggs); assay: Pest toxicity test; format: in vivo; conditions: 0.1% by weight; French bean; 3 days
Aphis fabae = assay: Pest toxicity test; format: in vivo; conditions: 0.1% by weight; broad bean; 2 days
Megoura viceae = assay: Pest toxicity test; format: in vivo; conditions: 0.1% by weight; broad bean; 2 days
[7] = test system: Aedes aegypti (mosquito larvae); assay: Pest toxicity test; format: in vivo
[8] = test system: Aedes aegypti (mosquito adults); assay: Pest toxicity test; format: in vivo; conditions: 0.01% by weight; plywood; 1 day
[9] = test system: Musca domestica (houseflies); assay: Pest toxicity test, contact test; format: in vivo; conditions: 0.1% by weight; milk/sugar; 2 days; flies sprayed directly
[10] = test system: Pieris brassicae (cabbage white caterpillars); assay: Pest toxicity test; format: in vivo; conditions: 0.1% by weight, 2 days
[11] = test system: Plutella maculipennis (diamond back moth larvae); assay: Pest toxicity test; format: in vivo; conditions: 0.1% by weight; mustard/paper; 2 days
[12] = test system: Phaedon cochleariae (mustard beetles); assay: Pest toxicity test; format: in vivo; conditions: 0.1% by weight; mustard/paper; 2 days
Lettuce = assay: Herbicidal test, pre- and post-emergence; format: in vivo; conditions: 10 lb/acre (11.2 kg/ha); scale 0 (no effect) to 3 (complete kill)
Tomato = assay: Herbicidal test, pre- and post-emergence; format: in vivo; conditions: 10 lb/acre (11.2 kg/ha); scale 0 (no effect) to 3 (complete kill)
Wheat [13] = assay: Herbicidal test, pre- and post-emergence; format: in vivo; conditions: 10 lb/acre (11.2 kg/ha); scale 0 (no effect) to 3 (complete kill)
Maize = assay: Herbicidal test, pre- and post-emergence; format: in vivo; conditions: 10 lb/acre (11.2 kg/ha); scale 0 (no effect) to 3 (complete kill)
Sugar beet = assay: Further herbicidal test, various rates; format: in vivo; conditions: scale 0 to 5 (complete kill)
Kale = assay: Further herbicidal test, various rates; format: in vivo; conditions: scale 0 to 5 (complete kill)
Carrot = assay: Further herbicidal test, various rates; format: in vivo; conditions: scale 0 to 5 (complete kill)
Pea = assay: Further herbicidal test, various rates; format: in vivo; conditions: scale 0 to 5 (complete kill)
Onion = assay: Further herbicidal test, various rates; format: in vivo; conditions: scale 0 to 5 (complete kill)
Barley [14] = assay: Further herbicidal test, various rates; format: in vivo; conditions: scale 0 to 5 (complete kill)
Rice = assay: Further herbicidal test, various rates; format: in vivo; conditions: scale 0 to 5 (complete kill)
Oat = assay: Further herbicidal test, various rates; format: in vivo; conditions: scale 0 to 5 (complete kill)
Barley [15] = assay: Selective herbicidal activity; format: in vivo; conditions: for Damage to plants: 28 days, scale 0 to 10 (complete kill)
From the text: (§1) This Example illustrates the selective herbicidal activity of compounds No. 5 and 12 of Table 1. The compounds, formulated as in Example 5 were sprayed on to pots of soil previously sown with seeds of the plant species shown in Tables 13 and 14.
(§2) Table 14 gives the results for compound No. 12 of Table 1 The figures are assessments of damage to the plants 23 days after treatment, on a scale of 0 to 5 where 0 is no effect and 5 is complete kill

Wheat [16] = assay: Selective herbicidal activity; format: in vivo; conditions: for Damage to plants: 28 days, scale 0 to 10 (complete kill)
From the text: as §1, §2

broadleaved plants = assay: Selective herbicidal activity; format: in vivo; conditions: Tables 13 and 14
From the text: as §1, §2

Redshank = assay: Selective herbicidal activity; format: in vivo, Polygonum persicaria; conditions: 28 days, scale 0 to 10 (complete kill)
From the text: as §1
Redshank Polygonum persicaria

Annual Nettle = assay: Selective herbicidal activity; format: in vivo, Urtica urens; conditions: 28 days, scale 0 to 10 (complete kill)
From the text: as §1
Annual Nettle Urtica urens

Mayweed = assay: Selective herbicidal activity; format: in vivo, Tripleurospermum maritimum ssp. inodorum; conditions: 28 days, scale 0 to 10 (complete kill)
From the text: as §1
Mayweed Tripleurospermum maritimum

Chickweed = assay: Selective herbicidal activity; format: in vivo, Stellaria media; conditions: 28 days, scale 0 to 10 (complete kill)
From the text: as §1
Chickweed Stellaria media

Groundsel = assay: Selective herbicidal activity; format: in vivo, Senecio vulgaris; conditions: 28 days, scale 0 to 10 (complete kill)
From the text: as §1
Groundsel Senecio vulgaris

Speedwell = assay: Selective herbicidal activity; format: in vivo, Veronica spp; conditions: 28 days, scale 0 to 10 (complete kill)
From the text: as §1

White mustard = assay: Selective herbicidal activity; format: in vivo, Sinapis alba; conditions: 28 days, scale 0 to 10 (complete kill)
From the text: as §1
White mustard Sinapis alba

Wild oat = assay: Selective herbicidal activity; format: in vivo, Avenua fatua; conditions: 28 days, scale 0 to 10 (complete kill)
From the text: as §1

O=[N+]([O-])c1ccc(Nc2c(Cl)c(F)nc(F)c2Cl)c(C(F)(F)F)c1 [Compound 5]
3 (3 represents over 90% kill): Mortality grading (kill) [5] | Mortality grading (kill) [6] | Mortality grading (kill) (Aphis fabae) | Mortality grading (kill) (Megoura viceae) | Mortality grading (kill) [10]
abnormal growth effects: abnormal growth effects in larva of mosquitos ([7]; in vivo)
4: Damage to plants, post-emergence (Pea; 1 lb/acre) | Damage to plants, post-emergence (Pea; 5 lb/acre) | Damage to plants, post-emergence (Oat; 5 lb/acre) | Damage to plants (Groundsel; 0.5 kg/hectare)
5.5: Damage to plants (Wild oat; 4 kg/hectare)
3 (0 to 5): Amount of disease grading, disease A [1] | Amount of disease grading, disease C [2] | Amount of disease grading, disease D (Uncinula necator (vine)) | Amount of disease grading, disease G [4]
0 (61 to 100): Amount of disease grading, disease E [3]
2: Damage to plants, pre-emergence (Wheat [13]) | Damage to plants, pre-emergence (Carrot; 1 lb/acre) | Damage to plants, pre-emergence (Oat; 1 lb/acre)
10: Damage to plants (Redshank; 4 kg/hectare) | Damage to plants (Annual Nettle; 0.5 kg/hectare) | Damage to plants (Annual Nettle; 4 kg/hectare) | Damage to plants (Mayweed; 4 kg/hectare) | Damage to plants (Chickweed; 4 kg/hectare) | Damage to plants (Groundsel; 4 kg/hectare) | Damage to plants (Speedwell; 0.5 kg/hectare) | Damage to plants (Speedwell; 4 kg/hectare)
1 (1 represents 30 - 49% kill): Mortality grading (kill) [11]
8.5: Damage to plants (White mustard; 4 kg/hectare)
5: Damage to plants, post-emergence (Sugar beet; 1 lb/acre) | Damage to plants, post-emergence (Sugar beet; 5 lb/acre) | Damage to plants, pre-emergence (Sugar beet; 5 lb/acre) | Damage to plants, post-emergence (Kale; 1 lb/acre) | Damage to plants, post-emergence (Kale; 5 lb/acre) | Damage to plants, pre-emergence (Kale; 5 lb/acre) | Damage to plants, post-emergence (Carrot; 1 lb/acre) | Damage to plants, post-emergence (Carrot; 5 lb/acre) | Damage to plants, pre-emergence (Carrot; 5 lb/acre) | Damage to plants, post-emergence (Onion; 5 lb/acre) | Damage to plants, pre-emergence (Onion; 5 lb/acre) | Damage to plants, pre-emergence (Barley [14]; 1 lb/acre) | Damage to plants, pre-emergence (Barley [14]; 5 lb/acre) | Damage to plants, pre-emergence (Rice; 5 lb/acre) | Damage to plants, pre-emergence (Oat; 5 lb/acre) | Damage to plants (Redshank; 0.5 kg/hectare)
6: Damage to plants (Mayweed; 0.5 kg/hectare)
3: Damage to plants, post-emergence (Lettuce) | Damage to plants, pre-emergence (Lettuce) | Damage to plants, post-emergence (Tomato) | Damage to plants, pre-emergence (Tomato) | Damage to plants, pre-emergence (Pea; 5 lb/acre) | Damage to plants, post-emergence (Onion; 1 lb/acre) | Damage to plants, post-emergence (Barley [14]; 1 lb/acre) | Damage to plants, post-emergence (Barley [14]; 5 lb/acre) | Damage to plants, pre-emergence (Rice; 1 lb/acre) | Damage to plants, post-emergence (Oat; 1 lb/acre)
undamaged: damage to barley (in words) (Barley [15]; Tables 13 and 14) | damage to wheat (in words) (Wheat [16]; Tables 13 and 14)
0 (O represents less than 30% kill): Mortality grading (kill) ([7]; 0.01% by weight, water, 1 day) | Mortality grading (kill) [8] | Mortality grading (kill), contact test [9] | Mortality grading (kill) [12]
8: Damage to plants (Chickweed; 0.5 kg/hectare)
0: Damage to plants, post-emergence (Wheat [13]) | Damage to plants, post-emergence (Maize) | Damage to plants, pre-emergence (Maize) | Damage to plants, pre-emergence (Sugar beet; 1 lb/acre) | Damage to plants, pre-emergence (Kale; 1 lb/acre) | Damage to plants, pre-emergence (Pea; 1 lb/acre) | Damage to plants, pre-emergence (Onion; 1 lb/acre) | Damage to plants, post-emergence (Rice; 1 lb/acre) | Damage to plants, post-emergence (Rice; 5 lb/acre) | Damage to plants (Barley [15]; 0.5 kg/hectare) | Damage to plants (Barley [15]; 4 kg/hectare) | Damage to plants (Wheat [16]; 0.5 kg/hectare) | Damage to plants (Wheat [16]; 4 kg/hectare) | Damage to plants (White mustard; 0.5 kg/hectare) | Damage to plants (Wild oat; 0.5 kg/hectare)
caused damage to the broadleaved plants: damage to the broadleaved plants (in words) (broadleaved plants)
